Columns and labels:
[1] = H2O2 accumulation and decay in tissue culture exposed to HX/XO (H2O2 selective electrode); type: cell-based, Chinese hamster; conditions: presence of CHD
Method: Chinese hamster V79 cells were plated in full medium and incubated at 37° C. with 5 mM HX+0.04 U/ml XO, sampled at various time points, and assayed for H2O2 using a hydrogen peroxide selective electrode.
Hydrogen peroxide was assayed using a YSI Model 27 Industrial Analyzer (Yellow Springs Instruments) equipped with a selective electrode for H2O2. For analysis of cellular preparations, the cells, except during the brief time required for removal of aliquots for analysis, were kept in T25 culture flasks maintained at 37° C. in complete medium (pH 7.2). Aliquots of 25 μl were sampled from the reaction or cell preparation system at varying time points and injected into the analyzer. [H2O2] was determined after calibrating the instrument with known concentrations of H2O2. The concentrations of standard H2O2 solutions were calibrated using iodometric assay (Hochanadel, J. Phys. Chem., 56, 587-594, 1952).

[2] = Water/octanol partition of nitroxides, ratio determined by EPR; type: physicochemical; conditions: Octanol:water
Source text: CHD, 2-spirocyclohexane doxyl(2-spirocyclohexane-5,5-dimethyl-3-oxazolidinoxyl) and OXANO, 2-ethyl-2,5,5-trimethyl-3-oxazolidine-1-oxyl as well as other nitroxides were synthesized as described by Keana et al (J. Am. Chem. Soc., 89, 3055-3056, 1967) For the general synthesis of the cyclic amines, the appropriate starting ketone was reacted with 2-amino-2-methyl-1-propanol in benzene in the presence of catalytic amounts of p-toluene sulfonic acid. As the cyclic structure formed, water was eliminated. The volume of water collected in a Dean Stark apparatus was monitored and used to gauge the reaction progress. The amines thus produced were purified through fractional distillation under reduced pressure, characterized by 220 MHz ^1H NMR, IR, UV, either EI or CI mass spectroscopy, and subsequently oxidized to the corresponding nitroxides using m-chloroperbenzoic acid. The nitroxides were purified by silica flash chromatography (Still et al, J. Org. Chem., 43, 2923-2925, 1978). Water/octanol ratios were determined by placing a quantity of nitroxide in water+octanol within a separatory funnel. The mixture was shaken thoroughly and allowed to separate for 15 min, whereupon aliquots were taken from both fractions and the ratio of nitroxide distribution was determined using electron paramagnetic resonance (EPR) spectroscopy, by comparing the intensities of signal obtained under N2.

[3] = test system: Chinese hamster V79 cells; assay: Protection of cells exposed to H2O2 under hypoxic conditions; type: cell-based; conditions: 600 μM H2O2, 1 h, 37° C.
Method: Some studies required exposure to H2O2 under hypoxic conditions. For these studies, cells dispersed in 1.8 ml of medium were plated into specially designed glass flasks (Russo et al, Radiat. Res., 103, 232-239, 1985). The flasks were sealed with soft rubber stoppers, and 19-gauge needles were pushed through to act as entrance and exit ports for a humidified gas mixture of 95% nitrogen/5% CO2 (Matheson Gas Products). […] Stoppered flasks were connected in series and mounted on a reciprocating platform and gassed at 37° C. for 45 min. […] After 45 min of gassing, the hypoxic H2O2 solution was added to the cell monolayer culture. The cells were exposed to H2O2 for 1 h under hypoxic conditions. N2 gas flow was maintained during the H2O2 exposure. In parallel flasks, DF and CHD were added as described above, and were present during the entire gassing procedure. Following treatment, cell survival was assessed as described above.

[4] = EPR signal of nitroxides exposed to O2 flux formed by HX/XO (spin-loss); type: biochemical; conditions: % from total R′RNO + R′RNOH after exposure to 5 mM HX + 0.03 U/ml XO in air-saturated PBS pH 7.2
Method: For EPR experiments, samples (0.05-0.1 ml) either of solutions of chemicals or cell suspensions were drawn by a syringe into a gas-permeable teflon capillary of 0.8 mm inner diameter, 0.05 mm wall thickness (Zeus Industrial Products, Inc. Raritan, N.J.). Each capillary was folded twice, inserted into a narrow quartz tube which was open at both ends (2.5 mm ID), and then placed horizontally into the EPR cavity. During the experiments, gases of desired compositions were blown around the sample without having to disturb the alignment of the tube within the EPR cavity. EPR spectra were recorded in a Varian E4 (or E9) X-band spectrometer, with field set at 3357 G, modulation frequency of 100 KHz, modulation amplitude of 1 G and non-saturating microwave power. The EPR spectrometer was interfaced to an IBM-PC through an analog-to-digital converter and a data translation hardware (DT2801) and the spectra were digitized using commercial acquisition software, enabling subtraction of background signals. To study the kinetics of the spin-loss, the spectra were deliberately overmodulated, and the magnetic field was kept constant while the intensity of the EPR signal was followed.

[5] = test system: V79 cells; assay: Nitroxide intracellular localization by EPR with trioxalato-chromiate; type: cell-based, Chinese hamster
Method: The EPR signal intensity of the total concentration of CHD (intra- and extra-cellular) in 6.4×10^7 V79 cells/ml traces (A and C) and in the presence of 110 mM trioxalato-chromiate (CrOx) (traces B and D).
For EPR experiments, samples (0.05-0.1 ml) either of solutions of chemicals or cell suspensions were drawn by a syringe into a gas-permeable teflon capillary of 0.8 mm inner diameter, 0.05 mm wall thickness (Zeus Industrial Products, Inc. Raritan, N.J.). Each capillary was folded twice, inserted into a narrow quartz tube which was open at both ends (2.5 mm ID), and then placed horizontally into the EPR cavity. During the experiments, gases of desired compositions were blown around the sample without having to disturb the alignment of the tube within the EPR cavity. EPR spectra were recorded in a Varian E4 (or E9) X-band spectrometer, with field set at 3357 G, modulation frequency of 100 KHz, modulation amplitude of 1 G and non-saturating microwave power. The EPR spectrometer was interfaced to an IBM-PC through an analog-to-digital converter and a data translation hardware (DT2801) and the spectra were digitized using commercial acquisition software, enabling subtraction of background signals. To study the kinetics of the spin-loss, the spectra were deliberately overmodulated, and the magnetic field was kept constant while the intensity of the EPR signal was followed. […]

[6] = test system: DNA-Fe(II); assay: Reaction of nitroxide with DNA-Fe(II), EPR spin-loss and OD353nm; type: biochemical, Salmon; conditions: hypoxic mixing, 0.1 mg/ml Salmon DNA, 50 mM MOPS pH 7.0, 22° C.
Method: All solutions always contained 0.1 mg/ml Salmon DNA. The appearance of DNA-Fe(III) was spectrophotometrically monitored at 353 nm, whereas the spin-loss of CHD was monitored by following its EPR signal. To study the time-dependence of ΔOD353nm (∘), 1 mM CHD was mixed with 0.1 mM Fe(II). To follow the spin-loss of CHD (□), 1 mM Fe(II) was mixed with 0.1 mM CHD.
It was also questioned whether the aerobic and hypoxic protection by CHD to H2O2 exposure was a result of CHD directly accepting electrons from ferrous ions, thereby preventing generation of .OH. Because cellular iron is chelated, the possible reaction of nitroxide with chelated iron(II) was examined by repeating the experiment in the presence of DNA. To study the possibility of nitroxide-induced oxidation of transition metals, CHD was hypoxically mixed with iron(II) in the presence of 0.1 mg/ml Salmon DNA. Consequently, DNA-Fe(III) was formed and the nitroxide EPR signal disappeared. The reaction kinetics were investigated by maintaining either CHD or Fe(II) in excess while the absorbance due to DNA-Fe(III) and the nitroxide spin-loss were monitored respectively (FIG. 6). Both the decay of the EPR signal and the appearance of the OD353nm obeyed pseudo 1st order kinetics from which the 2nd order reaction rate constant was calculated as 44 M^−1s^−1 or 33 M^−1s^−1 using the data from EPR or optical absorption, respectively.

Q: With `CC1(C)CN([O])C2(CCCCC2)O1` [CHD, 2-spirocyclohexane-5,5-dimethyl-3-oxazolidinoxyl] as the compound, how does the “pattern of H2O2 generation by HX/XO” value [1] read?
A: did not significantly alter

Q: And the Partition coefficient [2]?
A: 80

Q: And the “protection against H2O2 cytotoxicity under hypoxic conditions” value [3]?
A: protects

Q: And the “Steady state EPR signal (%)” value [4]?
A: 30%

Q: And the “intracellular location / freedom of motion” value [5]?
A: located primarily in a membranous compartment

Q: And the “2nd order reaction rate constant with DNA-Fe(II), from EPR data” value ([6]; EPR spin-loss)?
A: 44 M⁻¹ s⁻¹

Q: And the “2nd order reaction rate constant with DNA-Fe(II), from optical absorption” value ([6]; OD353nm)?
A: 33 M⁻¹ s⁻¹

Source: patent publication US6605619B1, “Nitroxides as protectors against oxidatives stress” (The United States of America as represented by the …, priority 1992, dated 2003)
